Patent US8969516B2, “Method of hydrolysis of peptide bond” (priority 2006, dated 2015)

Experiment: MALDI-TOF screening of Ni^2+ dependent hydrolysis in a combinatorial peptide library
Type: physicochemical
Settings: CH3CO-Gly-Ala-Thr-X-His-Z-Lys-Phe-Leu-NH2 library, Ni^2+ 2 mM, pH 8.2, 10 mM Tris, score=24/tm
Method in brief: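 Ni2+ 2 mM, peptide pool 1 mM (total), 10 mM Tris pH 8.2; 37 °C and 45 °C in parallel; MS aliquots at 2/4/6/8 h; products detected visually. X: all proteinogenic residues except Asp, Glu, Cys; Z: all except Cys.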

Substance | hydrolysis score from MALDI-TOF screening (37° C.) | hydrolysis score from MALDI-TOF screening (45° C.)
Ac-GATKHVKFL-NH2 [TKHV] | 3 (a score of 3 for detection at 8 hours) | 6 (a score of 6 for detection at 4 hours)
Ac-GATKHWKFL-NH2 [TKHW] | 6 (a score of 6 for detection at 4 hours) | 12 (a score of 12, if it was seen to be partially hydrolysed at 2 hours)
Ac-GATKHYKFL-NH2 [TKHY] | 3 (a score of 3 for detection at 8 hours) | 6 (a score of 6 for detection at 4 hours)
Ac-GATLHAKFL-NH2 [TLHA] | 0 (a score of 0 if no trace of the product of hydrolysis was seen after 8 hours of incubation) | 0 (a score of 0 if no trace of the product of hydrolysis was seen after 8 hours of incubation)
Ac-GATLHDKFL-NH2 [TLHD] | 0 (a score of 0 if no trace of the product of hydrolysis was seen after 8 hours of incubation) | 0 (a score of 0 if no trace of the product of hydrolysis was seen after 8 hours of incubation)
Ac-GATLHEKFL-NH2 [TLHE] | 0 (a score of 0 if no trace of the product of hydrolysis was seen after 8 hours of incubation) | 0 (a score of 0 if no trace of the product of hydrolysis was seen after 8 hours of incubation)
Ac-GATLHFKFL-NH2 [TLHF] | 0 (a score of 0 if no trace of the product of hydrolysis was seen after 8 hours of incubation) | 0 (a score of 0 if no trace of the product of hydrolysis was seen after 8 hours of incubation)
Ac-GATLHGKFL-NH2 [TLHG] | 0 (a score of 0 if no trace of the product of hydrolysis was seen after 8 hours of incubation) | 0 (a score of 0 if no trace of the product of hydrolysis was seen after 8 hours of incubation)
Ac-GATLHHKFL-NH2 [TLHH] | 0 (a score of 0 if no trace of the product of hydrolysis was seen after 8 hours of incubation) | 0 (a score of 0 if no trace of the product of hydrolysis was seen after 8 hours of incubation)
Ac-GATLHIKFL-NH2 [TLHI] | 0 (a score of 0 if no trace of the product of hydrolysis was seen after 8 hours of incubation) | 0 (a score of 0 if no trace of the product of hydrolysis was seen after 8 hours of incubation)
Ac-GATLHKKFL-NH2 [TLHK] | 0 (a score of 0 if no trace of the product of hydrolysis was seen after 8 hours of incubation) | 3 (a score of 3 for detection at 8 hours)
Ac-GATLHLKFL-NH2 [TLHL] | 0 (a score of 0 if no trace of the product of hydrolysis was seen after 8 hours of incubation) | 0 (a score of 0 if no trace of the product of hydrolysis was seen after 8 hours of incubation)
Ac-GATLHMKFL-NH2 [TLHM] | 0 (a score of 0 if no trace of the product of hydrolysis was seen after 8 hours of incubation) | 0 (a score of 0 if no trace of the product of hydrolysis was seen after 8 hours of incubation)
Ac-GATLHNKFL-NH2 [TLHN] | 0 (a score of 0 if no trace of the product of hydrolysis was seen after 8 hours of incubation) | 0 (a score of 0 if no trace of the product of hydrolysis was seen after 8 hours of incubation)
Ac-GATLHPKFL-NH2 [TLHP] | 0 (a score of 0 if no trace of the product of hydrolysis was seen after 8 hours of incubation) | 0 (a score of 0 if no trace of the product of hydrolysis was seen after 8 hours of incubation)
Ac-GATLHQKFL-NH2 [TLHQ] | 0 (a score of 0 if no trace of the product of hydrolysis was seen after 8 hours of incubation) | 0 (a score of 0 if no trace of the product of hydrolysis was seen after 8 hours of incubation)
Ac-GATLHRKFL-NH2 [TLHR] | 0 (a score of 0 if no trace of the product of hydrolysis was seen after 8 hours of incubation) | 3 (a score of 3 for detection at 8 hours)
Ac-GATLHSKFL-NH2 [TLHS] | 0 (a score of 0 if no trace of the product of hydrolysis was seen after 8 hours of incubation) | 0 (a score of 0 if no trace of the product of hydrolysis was seen after 8 hours of incubation)
Ac-GATLHTKFL-NH2 [TLHT] | 0 (a score of 0 if no trace of the product of hydrolysis was seen after 8 hours of incubation) | 0 (a score of 0 if no trace of the product of hydrolysis was seen after 8 hours of incubation)

Substance | hydrolysis score from MALDI-TOF screening (37° C.) | hydrolysis score from MALDI-TOF screening (45° C.)
Ac-GATLHVKFL-NH2 [TLHV] | 0 (a score of 0 if no trace of the product of hydrolysis was seen after 8 hours of incubation) | 0 (a score of 0 if no trace of the product of hydrolysis was seen after 8 hours of incubation)
Ac-GATLHWKFL-NH2 [TLHW] | 3 (a score of 3 for detection at 8 hours) | 3 (a score of 3 for detection at 8 hours)
Ac-GATLHYKFL-NH2 [TLHY] | 0 (a score of 0 if no trace of the product of hydrolysis was seen after 8 hours of incubation) | 0 (a score of 0 if no trace of the product of hydrolysis was seen after 8 hours of incubation)
Ac-GATMHAKFL-NH2 [TMHA] | 0 (a score of 0 if no trace of the product of hydrolysis was seen after 8 hours of incubation) | 0 (a score of 0 if no trace of the product of hydrolysis was seen after 8 hours of incubation)
Ac-GATMHDKFL-NH2 [TMHD] | 0 (a score of 0 if no trace of the product of hydrolysis was seen after 8 hours of incubation) | 0 (a score of 0 if no trace of the product of hydrolysis was seen after 8 hours of incubation)
Ac-GATMHEKFL-NH2 [TMHE] | 0 (a score of 0 if no trace of the product of hydrolysis was seen after 8 hours of incubation) | 0 (a score of 0 if no trace of the product of hydrolysis was seen after 8 hours of incubation)
Ac-GATMHFKFL-NH2 [TMHF] | 0 (a score of 0 if no trace of the product of hydrolysis was seen after 8 hours of incubation) | 0 (a score of 0 if no trace of the product of hydrolysis was seen after 8 hours of incubation)
Ac-GATMHGKFL-NH2 [TMHG] | 0 (a score of 0 if no trace of the product of hydrolysis was seen after 8 hours of incubation) | 0 (a score of 0 if no trace of the product of hydrolysis was seen after 8 hours of incubation)
Ac-GATMHHKFL-NH2 [TMHH] | 0 (a score of 0 if no trace of the product of hydrolysis was seen after 8 hours of incubation) | 0 (a score of 0 if no trace of the product of hydrolysis was seen after 8 hours of incubation)
Ac-GATMHIKFL-NH2 [TMHI] | 0 (a score of 0 if no trace of the product of hydrolysis was seen after 8 hours of incubation) | 0 (a score of 0 if no trace of the product of hydrolysis was seen after 8 hours of incubation)
Ac-GATMHKKFL-NH2 [TMHK] | 0 (a score of 0 if no trace of the product of hydrolysis was seen after 8 hours of incubation) | 3 (a score of 3 for detection at 8 hours)
Ac-GATMHLKFL-NH2 [TMHL] | 0 (a score of 0 if no trace of the product of hydrolysis was seen after 8 hours of incubation) | 0 (a score of 0 if no trace of the product of hydrolysis was seen after 8 hours of incubation)
Ac-GATMHMKFL-NH2 [TMHM] | 0 (a score of 0 if no trace of the product of hydrolysis was seen after 8 hours of incubation) | 0 (a score of 0 if no trace of the product of hydrolysis was seen after 8 hours of incubation)
Ac-GATMHNKFL-NH2 [TMHN] | 0 (a score of 0 if no trace of the product of hydrolysis was seen after 8 hours of incubation) | 0 (a score of 0 if no trace of the product of hydrolysis was seen after 8 hours of incubation)
Ac-GATMHPKFL-NH2 [TMHP] | 0 (a score of 0 if no trace of the product of hydrolysis was seen after 8 hours of incubation) | 0 (a score of 0 if no trace of the product of hydrolysis was seen after 8 hours of incubation)
Ac-GATMHQKFL-NH2 [TMHQ] | 0 (a score of 0 if no trace of the product of hydrolysis was seen after 8 hours of incubation) | 0 (a score of 0 if no trace of the product of hydrolysis was seen after 8 hours of incubation)
Ac-GATMHSKFL-NH2 [TMHS] | 0 (a score of 0 if no trace of the product of hydrolysis was seen after 8 hours of incubation) | 0 (a score of 0 if no trace of the product of hydrolysis was seen after 8 hours of incubation)
Ac-GATMHTKFL-NH2 [TMHT] | 0 (a score of 0 if no trace of the product of hydrolysis was seen after 8 hours of incubation) | 0 (a score of 0 if no trace of the product of hydrolysis was seen after 8 hours of incubation)
Ac-GATMHVKFL-NH2 [TMHV] | 0 (a score of 0 if no trace of the product of hydrolysis was seen after 8 hours of incubation) | 0 (a score of 0 if no trace of the product of hydrolysis was seen after 8 hours of incubation)
